Series [1] deals with red blood cells (RBCs) of mice. Put plainly: Hemolytic assay. The class given is cell-based. Conditions: hemolytic activity; mouse RBCs, 1 h at 37° C. How it is done:
Fresh red blood cells (RBCs) of mice were washed with 1×PBS buffer and centrifuged 10 min at 3500 rpm for 3 times until the supernatant was clear, then RBCs were diluted into 5% v/v suspension in 1×PBS. 50 μL compounds in PBS were 2-fold serially diluted in a 96-well plate, and incubated with 50 μL RBCs suspension for 1 h at 37° C. The mixture was then centrifuged for 10 min at 3500 rpm. Subsequently, 30 μL of the supernatant was added to 100 μL PBS, then the absorbance of mixture was read on a Biotek Synergy HT plate reader at 540 nm. The hemolytic activity was calculated by the formula % hemolysis=(Abssample−AbsPBS)/(AbsTriton−AbsPBS)×100%. 1% Triton X-100 were used as the positive control and 1×PBS buffer was used as the negative control.

Series [2] concerns K. pneumoniae (ATCC 13383). The series can be described thus: Minimum inhibitory concentration (MIC) assay, K. pneumoniae. Particulars: Klebsiella pneumoniae, ATCC13383, Gram negative, 16 h incubation, read-out: MIC (μg/mL) K.P. The class given is cell-based, Klebsiella pneumoniae. As for the experimental part: Minimum inhibitory concentrations (MICs) assay.^2
All compounds were tested against six different bacteria strains: methicillin-resistant S. aureus (MRSA, ATCC 33591), E. coli (ATCC 25922), methicillin-resistant S. epidermidis (MRSE, RP62A), K. pneumoniae (ATCC 13383), vancomycin-resistant Enterococcus faecalis (VREF, ATCC 700802), P. aeruginosa (ATCC 27853). One colony of each bacteria was inoculated in 4 mL TSB buffer at 37° C. overnight, which was then diluted 100 times, and the bacteria were allowed to grow to the mid-logarithmic phase. 50 μL hydantoin compounds in 2-fold serial dilution of TSB were added in the 96-well plate, then 50 μL diluted bacterial in TSB medium (1×10^6 CFU/mL) was added to each well. After 16 h of incubation at 37° C., the absorption at 600 nm wavelength on a Biotek Synergy HT microtiter plate reader was recorded. Minimum inhibitory concentrations were determined as the lowest concentrations that inhibited bacteria growth completely.

Another series has as its system E. coli. The series can be described thus: Time kill assay, E. coli. The class given is cell-based, Escherichia coli. As for the experimental part: Bacteria MRSA (Gram-positive) and E. coli (Gram-negative) suspensions were allowed to grow at 37° C. to the mid-logarithmic phase, and diluted to 1×10^6 CFU/mL, […], 30 min, 1 h and 2 h, respectively. The resulted mixture was then diluted by 10^2 to 10^4 fold, from which 100 μL was spread on the TSB agar plate. The Number of bacteria colonies was counted after 20 h of incubation at 37° C.

Series [3] deals with colon cancer cells (HCT116). The series can be described thus: Selectivity for mammalian cells, HCT116. The class given is cell-based. Particulars: Homo sapiens, HCT-116; read-out: IC50 toward colon cancer cells (HCT116).

Converted amounts (≈) assume the structure as drawn.

As usually defined, the HC50 is the concentration that lyses half of the red blood cells. In general, IC50 refers to the concentration needed to halve the response being measured. As for `CCCCCCCCCCCC(=O)N[C@@H](CCCCN)CN1CC(=O)N(c2cccc(Cl)c2)C1=O` [Compound 22, (S)—N-(6-amino-1-(3-(3-chlorophenyl)-2,4-dioxoimidazolidin-1-yl)hexan-2-yl)dodecanamide], the “HC50” value in series [1] came out at 95 µg/mL. In addition, the MIC in series [2] worked out at 0.78 µg/mL. In the series on E. coli (4.0 μg/mL (4×MIC)), the “time to completely eradicate E. coli” value stood at 60 min. Further, the “time to eradicate all E. coli” value in the series with E. coli (25 μg/mL) and in the series on E. coli (50 μg/mL) was 30 min throughout. In addition, the IC50 in series [3] was found to be 100 µg/mL (≈ 197 µM).
